Molecular target: T1, NHE-1 (Oryctolagus cuniculus, UniProt P23791)
T1 construct: endogenous in cells; host or cells: rabbit platelets in platelet-rich plasma (male rabbits)
Assay: NHE-1 inhibition assay on rabbit platelets (platelet shape change after acidification with sodium propionate, laser aggregometer)
Assay type: cell-based
Method: Evaluation of NHE-1 inhibition was carried out on rabbit platelets by the known method[39],[40]. The experiments were carried out on 15 male rabbits weighing 3.0-4.0 kg. Platelet-rich plasma (PRP) was obtained by centrifuging blood with 3.8% sodium citrate (1:10) at 1000 rpm for 12 min (Multi centrifuge CM 6M, Latvia). Platelet shapeshifting due to acidification was followed with a laser aggregometer BIOLA-220 LA (Russia). Test compounds (10 μl, 10 nM final concentration) were added to 200 μl of PRP 5 min in a cuvette before the addition of sodium propionate solution, incubated with constant stirring using a magnetic stirrer (800 rpm, 37 °C). To control samples for NHE-1 activation, a buffer solution containing sodium propionate was added to 200 μL of PRP (600 μL, 135 mM sodium propionate, 20 mM HEPES, 1 mM CaCI2, 1 mM MgCI2, 10 mM glucose; pH 6.7). The change in light transmission at pH 7.4, 37 °C was monitored in a Krebs solution (600 μL, 120 mM NaCl, 4.8 mM KCl, 1.2 mM KH2PO4, 2.5 mM MgSO4, 25 mM NaHCO3, 2.6 mM CaCl2, 5.4 mM glucose; pH 7.4). Test compounds were added to a final concentration of 10 nM to the cuvette into 200 μl of PRP 5 min before adding the sodium propionate solution, incubated with constant stirring using a magnetic stirrer (800 rpm, 37 °C). NHE-1 inhibitors zoniporide, rimeporide, amiloride were used as reference drugs. Assays were run in 6 independent series.

T1 sequence (P23791 whole entry): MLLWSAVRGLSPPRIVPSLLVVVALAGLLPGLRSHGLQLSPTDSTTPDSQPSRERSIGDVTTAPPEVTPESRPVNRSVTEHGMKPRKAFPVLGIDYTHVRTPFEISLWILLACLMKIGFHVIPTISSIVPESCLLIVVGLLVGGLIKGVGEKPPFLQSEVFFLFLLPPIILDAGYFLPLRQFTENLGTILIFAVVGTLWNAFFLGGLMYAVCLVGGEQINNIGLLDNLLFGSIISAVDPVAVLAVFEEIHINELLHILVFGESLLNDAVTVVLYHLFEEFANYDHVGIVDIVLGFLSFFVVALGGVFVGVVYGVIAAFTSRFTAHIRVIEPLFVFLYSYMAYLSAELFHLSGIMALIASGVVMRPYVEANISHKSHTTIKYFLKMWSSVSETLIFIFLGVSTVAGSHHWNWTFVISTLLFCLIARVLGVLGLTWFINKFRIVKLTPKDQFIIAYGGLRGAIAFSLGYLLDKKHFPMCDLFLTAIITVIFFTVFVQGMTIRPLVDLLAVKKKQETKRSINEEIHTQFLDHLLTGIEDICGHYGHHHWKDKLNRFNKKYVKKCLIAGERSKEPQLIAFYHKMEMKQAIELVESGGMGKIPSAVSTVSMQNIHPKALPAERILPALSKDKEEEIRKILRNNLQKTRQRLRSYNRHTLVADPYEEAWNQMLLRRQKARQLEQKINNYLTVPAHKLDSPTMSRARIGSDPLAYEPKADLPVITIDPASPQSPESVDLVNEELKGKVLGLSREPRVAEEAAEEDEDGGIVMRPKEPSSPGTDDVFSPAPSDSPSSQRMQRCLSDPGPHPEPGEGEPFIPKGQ

inhibition at 0.01 µM (10 nM, rabbit platelet-rich plasma, decimal commas, read-out: NHE-1 inhibition at 10 nM, m ± SD, n = 6 (%)): 57.8%
NHE-1 inhibitory activity (in words) (compared with reference drugs): more potent and comparable to zoniporide
Structure (SMILES): Cn1c(=O)n(Cc2nnc(N)[nH]2)c(=O)c2ccccc21 [Compound 3e, 3-[(5-Amino-4H-1,2,4-triazol-3-yl)methyl]-1-methylquinazoline-2,4(1H,3H)-dione]
